ChEMBL document CHEMBL1908284, “Rational use of in vitro P-glycoprotein assays in drug discovery” (J Pharmacol Exp Ther, 2001)
Starred links: 1 amine or outer side, 2 acyl side, 3 side chain; linkers in the order of their positions; H or OH if unused. Positions of bridges follow the written chain, without caps; N, C: chain ends. Non-standard residues stand in square brackets, D forms with d. Residues, ends and D or L forms follow the SMILES beside them. Chains are numbered I, II in the order given. Actinocin(9to1) = Cc1c2oc3c(C)ccc(C(=O)[*:1])c3nc-2c(C(=O)[*:2])c(N)c1=O; NMeV = CN[C@H](C(=O)O)C(C)C; Sar = CNCC(=O)O

Tests used:
[1] = molecular target: T1, ATP-dependent translocase ABCB1 (Homo sapiens, UniProt P08183); conditions: spodoptera frugiperda, sf9, 20 µM;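 further: Compound-stimulated ATPase activity measured in membrane preparations of MDR1-expressing Sf9 cells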
T1 sequence (P08183 whole entry): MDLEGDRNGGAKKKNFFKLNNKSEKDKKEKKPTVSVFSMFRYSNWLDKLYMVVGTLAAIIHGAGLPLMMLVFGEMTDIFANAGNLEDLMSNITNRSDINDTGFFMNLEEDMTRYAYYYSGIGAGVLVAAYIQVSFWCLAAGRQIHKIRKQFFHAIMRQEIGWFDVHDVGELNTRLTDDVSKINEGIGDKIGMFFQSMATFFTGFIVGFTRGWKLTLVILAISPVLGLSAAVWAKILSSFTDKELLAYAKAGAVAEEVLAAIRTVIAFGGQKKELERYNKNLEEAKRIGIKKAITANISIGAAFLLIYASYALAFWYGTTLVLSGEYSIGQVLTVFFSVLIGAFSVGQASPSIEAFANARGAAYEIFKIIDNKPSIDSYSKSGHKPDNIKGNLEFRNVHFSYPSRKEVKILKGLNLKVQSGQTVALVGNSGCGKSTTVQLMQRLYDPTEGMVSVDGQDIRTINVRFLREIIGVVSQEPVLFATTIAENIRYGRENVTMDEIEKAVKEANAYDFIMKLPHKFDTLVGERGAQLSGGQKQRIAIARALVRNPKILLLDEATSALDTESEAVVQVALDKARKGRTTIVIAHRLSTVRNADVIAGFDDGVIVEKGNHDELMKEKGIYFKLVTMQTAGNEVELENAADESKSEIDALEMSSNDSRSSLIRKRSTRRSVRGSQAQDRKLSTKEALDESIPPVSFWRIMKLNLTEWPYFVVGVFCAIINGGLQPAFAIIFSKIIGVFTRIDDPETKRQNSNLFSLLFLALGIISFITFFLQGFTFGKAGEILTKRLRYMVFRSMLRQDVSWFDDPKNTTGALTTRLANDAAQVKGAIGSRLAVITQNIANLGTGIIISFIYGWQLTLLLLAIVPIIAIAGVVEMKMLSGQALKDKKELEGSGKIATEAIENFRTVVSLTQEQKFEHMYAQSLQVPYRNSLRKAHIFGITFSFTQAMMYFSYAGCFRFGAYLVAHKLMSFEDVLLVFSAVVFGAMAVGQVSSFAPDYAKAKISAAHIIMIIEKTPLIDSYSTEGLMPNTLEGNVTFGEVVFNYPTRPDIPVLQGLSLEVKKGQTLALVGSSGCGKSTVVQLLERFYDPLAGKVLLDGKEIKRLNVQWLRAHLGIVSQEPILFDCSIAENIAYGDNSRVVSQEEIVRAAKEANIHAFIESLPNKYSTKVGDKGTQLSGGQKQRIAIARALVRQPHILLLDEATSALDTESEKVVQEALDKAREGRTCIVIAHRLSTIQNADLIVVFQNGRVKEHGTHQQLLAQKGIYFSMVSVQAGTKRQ

[2] = molecular target: T2, ATP-dependent translocase ABCB1 (MDR1) (Homo sapiens, UniProt P08183); experiment: in vitro; conditions: dog
T2 sequence (P08183 whole entry): as above

[3] = molecular target: T2, ATP-dependent translocase ABCB1 (MDR1); experiment: in vitro; conditions: dog; remark: listed apart in the source
[4] = molecular target: T2, ATP-dependent translocase ABCB1 (MDR1); experiment: in vitro; conditions: dog; remark: listed apart in the source
[5] = molecular target: T1, ATP-dependent translocase ABCB1; experiment: TP_TRANSPORTER: ATP hydrolysis in MDR1-expressing Sf9 cells; assay type: functional

| SMILES | Ratio_ATPase activity [1] | Papp A→B ([2]; MDCK-MDR1, Papp) [×10⁻⁶ cm/s] | Papp B→A ([3]; MDCK-MDR1, Papp) [×10⁻⁶ cm/s] | efflux ratio ([4]; MDCK-MDR1, Ratio_Papp) | Activity [5] | Papp A→B ([2]; MDCK-MDR1) [×10⁻⁶ cm/s] | Papp B→A ([3]; MDCK-MDR1) [×10⁻⁶ cm/s] | efflux ratio ([4]; MDCK-MDR1) |
| --- | --- | --- | --- | --- | --- | --- | --- | --- |
| CC(C)(C)NC(=O)[C@@H]1C[C@@H]2CCCC[C@@H]2CN1C[C@@H](O)[C@H](Cc1ccccc1)NC(=O)[C@H](CC(N)=O)NC(=O)c1ccc2ccccc2n1 | 7.11 | 0.301 | 49.5 | 165 |  |  |  |  |
| CNS(=O)(=O)Cc1ccc2[nH]cc(CCN(C)C)c2c1 | 1.23 | 0.953 | 1.3 | 1.37 |  |  |  |  |
| CN1CCC[C@@H]1Cc1c[nH]c2ccc(CCS(=O)(=O)c3ccccc3)cc12 | 2.22 | 1.84 | 57.8 | 31.5 | substrate [+] |  |  |  |
| CCOc1ccc(-c2nc3cc(-c4nc5cc(N6CCN(C)CC6)ccc5[nH]4)ccc3[nH]2)cc1 | 0.86 |  |  |  |  | 0.335 | 2.6 | 7.75 |
| COc1cc2c(cc1OC)CN(CCc1ccc(NC(=O)c3cccc4c(=O)c5cccc(OC)c5[nH]c34)cc1)CC2 |  | 0.212 | 1.86 |  |  |  |  |  |
| CC(C)(C)NC(=O)[C@@H]1CN(Cc2cccnc2)CCN1C[C@@H](O)C[C@@H](Cc1ccccc1)C(=O)N[C@H]1c2ccccc2C[C@H]1O.O | 9.59 | 0.869 | 17.6 | 20.3 | substrate [+] |  |  |  |
| Cc1c(O)cccc1C(=O)N[C@@H](CSc1ccccc1)[C@H](O)CN1C[C@H]2CCCC[C@H]2C[C@H]1C(=O)NC(C)(C)C | 5.21 | 3.81 | 33.8 | 8.86 |  |  |  |  |
| Nc1nc(N)c2nc(-c3ccccc3)c(N)nc2n1 | 1.12 | 18.5 | 18.4 | 0.99 |  |  |  |  |
| CN(C)CCC(c1ccc(Cl)cc1)c1ccccn1 (racemic) [CHLORPHENIRAMINE] | 0.97 | 56.2 | 64.2 | 1.14 |  |  |  |  |
| NC12CC3CC(CC(C3)C1)C2 [AMANTADINE] |  | 18.6 | 15.7 |  |  |  |  |  |
| CCN(CC)CCCC(C)Nc1ccnc2cc(Cl)ccc12 (stereo not drawn) [CHLOROQUINE] | 0.77 | 4.49 | 17.2 | 3.83 | is not a substrate [-] |  |  |  |
| CN(C)CCCN1c2ccccc2Sc2ccc(Cl)cc21 [CHLORPROMAZINE] | 2.42 | 43.8 | 47.7 | 1.09 |  |  |  |  |
| CN/C(=N/CCSCc1nc[nH]c1C)NC#N [CIMETIDINE] | 1.31 |  |  |  |  | 1.23 | 2.69 | 2.19 |
| CC[C@H]1OC(=O)[C@H](C)[C@@H](O[C@H]2C[C@@](C)(OC)[C@@H](O)[C@H](C)O2)[C@H](C)[C@@H](O[C@@H]2O[C@H](C)C[C@H](N(C)C)[C@H]2O)[C@](C)(OC)C[C@@H](C)C(=O)[C@H](C)[C@@H](O)[C@]1(C)O [CLARITHROMYCIN] | 3.55 | 1.08 | 33.6 | 31.3 | substrate [+] |  |  |  |
| COc1cc2c(c(OC)c1OC)-c1ccc(OC)c(=O)cc1[C@@H](NC(C)=O)CC2 [COLCHICINE] | 1.23 |  |  |  | is not a substrate [-] | 1.79 | 20.2 | 11.3 |
| Cc1c2oc3c(C)ccc(C(=O)N[C@@H]4C(=O)N[C@H](C(C)C)C(=O)N5CCC[C@H]5C(=O)N(C)CC(=O)N(C)[C@@H](C(C)C)C(=O)O[C@@H]4C)c3nc-2c(C(=O)N[C@@H]2C(=O)N[C@H](C(C)C)C(=O)N3CCC[C@H]3C(=O)N(C)CC(=O)N(C)[C@@H](C(C)C)C(=O)O[C@@H]2C)c(N)c1=O [DACTINOMYCIN] (I: T[dV]P[Sar][NMeV] / II: T[dV]P[Sar][NMeV]; ester I:1-I:C, II:1-II:C; linker I:N-II:N via Actinocin(9to1)) | 1.2 | < 0.021 | 1.6 | > 80 | is not a substrate [-] |  |  |  |
| COc1cccc2c1C(=O)c1c(O)c3c(c(O)c1C2=O)C[C@@](O)(C(C)=O)C[C@@H]3O[C@H]1C[C@H](N)[C@H](O)[C@H](C)O1 [DAUNORUBICIN] | 1.69 | 0.547 | 7.77 | 14.2 | is not a substrate [-] |  |  |  |
| C[C@@H]1C[C@H]2[C@@H]3CCC4=CC(=O)C=C[C@]4(C)[C@@]3(F)[C@@H](O)C[C@]2(C)[C@@]1(O)C(=O)CO [DEXAMETHASONE] | 1.15 | 4.35 | 53.7 | 12.4 |  |  |  |  |
| COc1ccc([C@@H]2Sc3ccccc3N(CCN(C)C)C(=O)[C@@H]2OC(C)=O)cc1 [DILTIAZEM] | 2.64 | 41.3 | 67.6 | 1.64 |  |  |  |  |
| COc1cccc2c1C(=O)c1c(O)c3c(c(O)c1C2=O)C[C@@](O)(C(=O)CO)C[C@@H]3O[C@H]1C[C@H](N)[C@H](O)[C@H](C)O1 [DOXORUBICIN] | 0.95 | 1.45 | 0.973 | 0.67 |  |  |  |  |

| SMILES | Ratio_ATPase activity [1] | Papp A→B ([2]; MDCK-MDR1, Papp) [×10⁻⁶ cm/s] | Papp B→A ([3]; MDCK-MDR1, Papp) [×10⁻⁶ cm/s] | efflux ratio ([4]; MDCK-MDR1, Ratio_Papp) | Activity [5] | Papp A→B ([2]; MDCK-MDR1) [×10⁻⁶ cm/s] | Papp B→A ([3]; MDCK-MDR1) [×10⁻⁶ cm/s] | efflux ratio ([4]; MDCK-MDR1) |
| --- | --- | --- | --- | --- | --- | --- | --- | --- |
| CC[C@H]1OC(=O)[C@H](C)[C@@H](O[C@H]2C[C@@](C)(OC)[C@@H](O)[C@H](C)O2)[C@H](C)[C@@H](O[C@@H]2O[C@H](C)C[C@H](N(C)C)[C@H]2O)[C@](C)(O)C[C@@H](C)C(=O)[C@H](C)[C@@H](O)[C@]1(C)O [ERYTHROMYCIN] |  | 0.094 | 1.35 |  |  |  |  |  |
| COc1cc([C@@H]2c3cc4c(cc3[C@@H](O[C@@H]3O[C@@H]5CO[C@@H](C)O[C@H]5[C@H](O)[C@H]3O)[C@H]3COC(=O)[C@H]23)OCO4)cc(OC)c1O [ETOPOSIDE] |  | 2.14 | 6.06 |  |  |  |  |  |
| CCC(C)n1ncn(-c2ccc(N3CCN(c4ccc(OCC5COC(Cn6cncn6)(c6ccc(Cl)cc6Cl)O5)cc4)CC3)cc2)c1=O (stereo not drawn) [ITRACONAZOLE] | 1.2 | 57.1 | 55.2 | 0.97 |  |  |  |  |
| CN(C)C(=O)C(CCN1CCC(O)(c2ccc(Cl)cc2)CC1)(c1ccccc1)c1ccccc1 [LOPERAMIDE] | 3.75 |  |  |  |  | 9.98 | 77.6 | 7.77 |
| COC(=O)Nc1nc2ccc(C(=O)c3ccccc3)cc2[nH]1 [MEBENDAZOLE] | 2 | 71.4 | 64.8 | 0.91 | substrate [+] |  |  |  |
| CN(Cc1cnc2nc(N)nc(N)c2n1)c1ccc(C(=O)N[C@@H](CCC(=O)O)C(=O)O)cc1 [METHOTREXATE] | 0.91 | 1.05 | 0.706 | 0.67 |  |  |  |  |
| O=C1c2c(O)ccc(O)c2C(=O)c2c(NCCNCCO)ccc(NCCNCCO)c21 [MITOXANTRONE] |  | 0.191 | 0.644 |  |  |  |  |  |
| CC[C@@]1([C@@H]2O[C@@H]([C@H]3O[C@@](O)(CO)[C@H](C)C[C@@H]3C)C[C@@H]2C)CC[C@H]([C@]2(C)CC[C@]3(C[C@H](O)[C@@H](C)[C@@H]([C@@H](C)[C@@H](OC)[C@H](C)C(=O)O)O3)O2)O1 [MONENSIN] | 6.71 |  |  |  |  | 10.2 | 29.4 | 2.88 |
| COC(=O)C1=C(C)NC(C)=C(C(=O)OC)C1c1ccccc1[N+](=O)[O-] [NIFEDIPINE] |  |  |  |  | substrate [+] |  |  |  |
| CC[C@H]1C(=O)Nc2ccc(F)cc2N1C(=O)OC(C)C [OPAVIRALINE] | 1.02 | 75.8 | 72.6 | 0.96 |  |  |  |  |
| CC(=O)Nc1ccc(OCC(O)CNC(C)C)cc1 (stereo not drawn) [PRACTOLOL] | 1.42 | 1.24 | 1.64 | 1.32 |  |  |  |  |
| COc1cc2nc(N3CCN(C(=O)c4ccco4)CC3)nc(N)c2cc1OC [PRAZOSIN] | 3.4 | 14.3 | 66.1 | 4.63 |  |  |  |  |
| CN(C)C(=O)Oc1ccc[n+](C)c1 [PYRIDOSTIGMINE] | 0.89 |  |  |  |  | 1.02 | 1.26 | 1.24 |
| C=C[C@H]1C[N@@]2CC[C@H]1C[C@@H]2[C@@H](O)c1ccnc2ccc(OC)cc12 [QUINIDINE] | 2.54 | 3.64 | 99 | 27.2 |  |  |  |  |
| CNC(=C[N+](=O)[O-])NCCSCc1ccc(CN(C)C)o1 [RANITIDINE] | 1.23 | 1.44 | 1.95 | 1.35 |  |  |  |  |
| COC(=O)[C@H]1[C@H]2C[C@@H]3c4[nH]c5cc(OC)ccc5c4CCN3C[C@H]2C[C@@H](OC(=O)c2cc(OC)c(OC)c(OC)c2)[C@@H]1OC [RESERPINE] | 3.85 | 6.81 | 25.3 | 3.71 |  |  |  |  |
| CC(C)(C)c1ccc(C(O)CCCN2CCC(C(O)(c3ccccc3)c3ccccc3)CC2)cc1 (stereo not drawn) [TERFENADINE] |  | 6.56 | 30.6 |  |  |  |  |  |
| C[C@]12CC[C@H]3[C@@H](CCC4=CC(=O)CC[C@@]43C)[C@@H]1CC[C@@H]2O [TESTOSTERONE] | 1.32 |  |  |  |  | 91.6 | 66.8 | 0.73 |
| CC[C@]1(O)C[C@@H]2CN(CCc3c([nH]c4ccccc34)[C@@](C(=O)OC)(c3cc4c(cc3OC)N(C)[C@H]3[C@@](O)(C(=O)OC)[C@H](OC(C)=O)[C@]5(CC)C=CCN6CC[C@]43[C@@H]65)C2)C1 [VINBLASTINE] | 4.31 | < 1 | 23.2 | > 23 |  |  |  |  |
| COC(=O)[C@@H]1[C@H]2C[C@H]3c4[nH]c5ccccc5c4CCN3C[C@@H]2CC[C@@H]1O [YOHIMBINE] | 1.05 | 42.9 | 50.1 | 1.17 |  |  |  |  |
